Laboratory results as given in patent US20240287093A1, “HIGH ACTIVITY STING PROTEIN AGONIST” (ADLAI NORTYE BIOPHARMA CO., LTD., priority 2018, published 2024).

Legend:
Format in all cases: cell-based
[1] = target: T1, STING variants (WT) (Homo sapiens, UniProt Q86WV6); assay: SEAP reporter assay in HEK-Blue ISG KO-STING cells transfected with STING WT variant (Method 1); conditions: 24 h
T1 construct: host or cells: HEK-Blue ISG KO-STING cells (Invivogen, hkb-kostg)
Text: (§1) Example I: STING Variants (WT & HAQ) Activation by Compounds in HEK-Blue™ ISG KO-STING Cells (Method 1)
(§2) Activation of STING can be determined using a SEAP reporter assay in HEK-Blue™ ISG KO-STING cells (Invivogen, cat #hkb-kostg) transfected with plasmids expressing STING variants (WT & HAQ) (referred to WO2017/175147A1). STING variants (WT & HAQ) vector were constructed based on STING-232H vector (Origene, RC208418). GFP vector (VT2069) was bought from Youbio. The detailed protocol as follows: HEK-Blue™ ISG KO-STING cells were harvest and seeding into 96 well plate, the final cell number was 0.8×10^5 cells/well. Transfections were prepared using Lipofectamine 2000 (Invitrogen, Cat #11668-027) following the manufacturer's instructions (Lipo2000:DNA=1:10), 20 ul of transfection suspension containing 1 ng STING vector was added to cell culture plate and incubated at 37° C., 5% CO2 for 24 h. After 24 hours incubation, compounds were added at proper concentration, and the final DMSO concentration was 0.5%. After 24 h incubation, the supernatant was collected to detect SEAP signal using Great EscAPe SEAP chemiluminescence KIT (Clontech, cat #631738) and cells were collected to detect cell viability using CellTiter-Glo Luminescent Cell Viability Assay (Promega, cat #G7573) following the manufacturer's instructions. The data were described by the ratio of the stimulating signal of compounds to 0.5% DMSO.

[2] = target: T2, STING variants (HAQ) (Homo sapiens, UniProt Q86WV6, G230A/R293Q/R71H); assay: SEAP reporter assay in HEK-Blue ISG KO-STING cells transfected with STING HAQ variant (Method 1); conditions: 24 h
T2 construct: host or cells: HEK-Blue ISG KO-STING cells (Invivogen, hkb-kostg)
T2 sequence (Q86WV6 whole entry R71H/G230A/R293Q): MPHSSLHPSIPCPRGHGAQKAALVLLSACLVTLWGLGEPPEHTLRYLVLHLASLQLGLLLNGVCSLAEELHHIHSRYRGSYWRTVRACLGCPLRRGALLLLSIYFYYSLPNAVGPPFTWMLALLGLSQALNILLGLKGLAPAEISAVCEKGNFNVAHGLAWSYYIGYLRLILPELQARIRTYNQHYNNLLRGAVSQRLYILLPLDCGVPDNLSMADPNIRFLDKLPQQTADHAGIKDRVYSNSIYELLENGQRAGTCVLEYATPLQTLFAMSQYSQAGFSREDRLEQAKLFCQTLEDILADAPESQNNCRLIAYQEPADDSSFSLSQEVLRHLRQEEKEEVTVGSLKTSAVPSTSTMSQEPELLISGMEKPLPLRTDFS
Text: as §1, §2

[3] = target: T3, STING (Homo sapiens, UniProt Q86WV6, G230A/H232R/R293Q/R71H); assay: IFNβ release from THP1 by STING activation (hIFNβ ELISA); conditions: THP1 cells, 24 h, IFN-β in supernatant; inactive = IFNβ not detected at the maximum concentration of compounds
T3 construct: THP1 was purchased from National Collection of Authenticated Cell Cultures (Cat #TCHu 57); host or cells: THP1
T3 sequence (Q86WV6 whole entry R71H/G230A/H232R/R293Q): as the sequence (Q86WV6 whole entry R71H/G230A/R293Q) above, with H232R counted along it
Method: Example III: Compound Stimulate THP1 to Release IFNβ by STING Activation
In this assay, activation of STING by compounds was evaluated by detecting their ability to stimulate the secretion of IFN-β (interferon-beta) from THP1. THP1 was purchased from National Collection of Authenticated Cell Cultures (Cat #TCHu 57). The top dose of compounds was setted according to their solubility. First, Compounds were 3 times diluted with medium, 8-dose points in total. The final DMSO concentration was 0.2%. THP1 during the logarithmic phase was resuspended to 2×10^6 cells/ml in assay medium. The THP1-cell suspension was dispensed into a 96-well U bottom plate containing 50 ul of compound diluted in medium. After 24 h incubation at 37° C., 5% CO2, the supernatant was collected. The concentration of IFN-β in the supernatant was measured using a human IFNβ ELISA KIT (R&D, DY814-05). The data was fitted with GraphPad Prism or XLfit to calculate EC50 values.

[4] = target: T2, STING variants (HAQ); assay: SEAP reporter assay in HEK-Blue ISG KO-STING cells transfected with STING HAQ variant (Method 2, 0.0625 ng vector); conditions: compound concentration 5 (mM as printed); 24 h; SEAP signal ratio to 0.5% DMSO
Text: (§3) Example II: STING Variants (WT & HAQ) Activation by Compounds in HEK-Blue™ ISG KO-STING Cells (Method 2)
as §2, with “96 well plate and the final” for “96 well plate, the final”, “1 ng (WT variant) or 0.0625 ng (HAQ variant) STING vector” for “1 ng STING vector”, “proper concentration, the final” for “proper concentration, and the final”, “0.5%. After 24h incubation, the” for “0.5%. After 24 h incubation, the”, “Cell Viability Assay(Promega, cat #G7573)” for “Cell Viability Assay (Promega, cat #G7573)”

[5] = target: T1, STING variants (WT); assay: SEAP reporter assay in HEK-Blue ISG KO-STING cells transfected with STING WT variant (Method 2, 1 ng vector); conditions: compound concentration 2.5 (mM as printed); 24 h; SEAP signal ratio to 0.5% DMSO
Text: as §3
as §2, with “96 well plate and the final” for “96 well plate, the final”, “1 ng (WT variant) or 0.0625 ng (HAQ variant) STING vector” for “1 ng STING vector”, “proper concentration, the final” for “proper concentration, and the final”, “0.5%. After 24h incubation, the” for “0.5%. After 24 h incubation, the”, “Cell Viability Assay(Promega, cat #G7573)” for “Cell Viability Assay (Promega, cat #G7573)”

SMILES | Fold change related to DMSO control, WT ([1]; compound concentration 25 μM) | Fold change related to DMSO control, HAQ ([2]; compound concentration 25 μM) | hIFNβ ELISA (EC50, μM) [3] | Fold change related to DMSO control, WT ([1]; compound concentration 2.5 μM) | Fold change related to DMSO control, HAQ ([2]; compound concentration 5 μM) | EC50 [3] | Fold change related to DMSO control, HAQ [4] | Fold change related to DMSO control, WT [5]
CCn1nc(C)cc1C(=O)Nc1nc2cc(C(N)=O)cc3c2n1[C@@H](CCCNC(=O)/C=C/c1ccccc1)CO3 [Example 31, (S)-3-(3-Cinnamamidopropyl)-2-(1-ethyl-3-methyl-1H-pyrazole-5-carboxamido)-3,4-dihydro-5-oxa-1,2a-diazaacenaphthylene-7-carboxamide] | 2.71 fold | 22.11 fold | inactive | – | – | – | – | –
CCn1nc(C)cc1C(=O)Nc1nc2cc(C(N)=O)cc3c2n1[C@@H](CCCNC(=O)OCc1cccnc1)CO3 [Example 32, Pyridin-3-ylmethyl (S)-(3-(7-carbamoyl-2-(1-ethyl-3-methyl-1H-pyrazole-5-carboxamido)-3,4-dihydro-5-oxa-1,2a-diazaacenaphthylen-3-yl)propyl)carbamate] | 1.45 fold | 2.88 fold | inactive | – | – | – | – | –
CCn1nc(C)cc1C(=O)Nc1nc2cc(C(N)=O)cc3c2n1[C@@H](CCCNC(=O)COc1ccccc1)CO3 [Example 33, (S)-2-(1-ethyl-3-methyl-1H-pyrazole-5-carboxamido)-3-(3-(2-phenoxyacetamido)propyl)-3,4-dihydro-5-oxa-1,2a-diazaacenaphthylene-7-carboxamide] | 2.49 fold | 20.81 fold | inactive | – | – | – | – | –
CCn1nc(C)cc1C(=O)Nc1nc2cc(C(N)=O)cc3c2n1[C@@H](CCCNC(=O)OCc1ccccc1)CN3C [Example 43, Benzyl (S)-(3-(8-carbamoyl-2-(1-ethyl-3-methyl-1H-pyrazole-5-carbozamido)-6-methyl-5,6-dihydro-4H-imidazo[1,5,4-de]quinoxalin-4-yl)propyl)carbamate] | – | – | inactive | 2.02 fold | 23.88 fold | – | – | –
CCn1nc(C)c(F)c1C(=O)Nc1nc2cc(C(N)=O)cc3c2n1CC(C)(C)CO3 [Example 44, 1-(1-Ethyl-4-fluoro-3-methyl-1H-pyrazole-5-carboxamido)-8,8-dimethyl-8,9-dihydro-7H-6-oxa-2,9a-diazabenzo[cd]azulene-4-carboxamide] | – | – | – | – | – | 19.8 µM | 15.38 fold | 2.48 fold
CCn1nc(C)c(Cl)c1C(=O)Nc1nc2cc(C(N)=O)cc3c2n1CC(C)(C)CO3 [Example 45, 1-(4-Chloro-1-ethyl-3-methyl-1H-pyrazole-5-carboxamido)-8,8-dimethyl-8,9-dihydro-7H-6-oxa-2,9a-diazabenzo[cd]azulene-4-carboxamide] | – | – | inactive | – | – | – | 1.59 fold | 1.18 fold
CCn1nc(C)c(Br)c1C(=O)Nc1nc2cc(C(N)=O)cc3c2n1CC(C)(C)CO3 [Example 46, 1-(4-Bromo-1-ethyl-3-methyl-1H-pyrazole-5-carboxamido)-8,8-dimethyl-8,9-dihydro-7H-6-oxa-2,9a-diazabenzo[cd]azulene-4-carboxamide] | – | – | – | – | – | > 5.6 µM | 2.12 fold | 1.41 fold
CC[C@H]1COc2cc(C(N)=O)cc3nc(NC(=O)c4c(F)c(C)nn4CC)n1c23 [Example 47, (S)-3-Ethyl-2-(1-ethyl-4-fluoro-3-methyl-1H-pyrazole-5-carboxamido)-3,4-dihydro-5-oxa-1,2a-diazaacenaphthylene-7-carboxamide] | – | – | – | – | – | > 5.2 µM | 27.64 fold | 6.91 fold
CC[C@H]1COc2cc(C(N)=O)cc3nc(NC(=O)c4c(Cl)c(C)nn4CC)n1c23 [Example 48, (S)-2-(4-Chloro-1-ethyl-3-methyl-1H-pyrazole-5-carboxamido)-3-ethyl-3,4-dihydro-5-oxa-1,2a-diazaacenaphthylene-7-carboxamide] | – | – | inactive | – | – | – | 3.46 fold | 1.85 fold
CC[C@H]1COc2cc(C(N)=O)cc3nc(NC(=O)c4c(Br)c(C)nn4CC)n1c23 [Example 49, (S)-2-(4-Bromo-1-ethyl-3-methyl-1H-pyrazole-5-carboxamido)-3-ethyl-3,4-dihydro-5-oxa-1,2a-diazaacenaphthylene-7-carboxamide] | – | – | – | – | – | > 2.5 µM | 1.94 fold | 1.49 fold
C=CCCCn1nc(C)cc1C(=O)Nc1nc2cc(C(N)=O)cc3c2n1[C@@H](CCCN)CO3 [Example 50, (S)-3-(3-Aminopropyl)-2-(3-methyl-1-(pent-4-en-1-yl)-1H-pyrazole-5-carboxamido)-3,4-dihydro-5-oxa-1,2a-diazaacenaphthylene-7-carboxamide] | – | – | inactive | – | – | – | 1.27 fold | 0.83 fold
C=Cc1c(C)nn(CC)c1C(=O)Nc1nc2cc(C(N)=O)cc3c2n1[C@@H](CCCN)CO3 [Example 51, (S)-3-(3-Aminopropyl)-2-(1-ethyl-3-methyl-4-vinyl-1H-pyrazole-5-carboxamido)-3,4-dihydro-5-oxa-1,2a-diazaacenaphthylene-7-carboxamide] | – | – | inactive | – | – | – | 0.63 fold | 0.79 fold
CCn1nc(C)cc1C(=O)Nc1nc2cc(C(N)=O)cc3c2n1C[C@@H](CO)O3 [Example 52, (S)-2-(1-ethyl-3-methyl-1H-pyrazole-5-carboxamido)-4-(hydroxymethyl)-3,4-dihydro-5-oxa-1,2a-diazaacenaphthylene-7-carboxamide] | – | – | inactive | – | – | – | 0.82 fold | 0.82 fold
CCn1nc(C)cc1C(=O)Nc1nc2cc(C(N)=O)cc3c2n1CC(F)(F)CO3 [Example 53, 1-(1-Ethyl-3-methyl-1H-pyrazole-5-carboxamido)-8,8-difluoro-8,9-dihydro-7H-6-oxa-2,9a-diazabenzo[cd]azulene-4-carboxamide] | – | – | – | – | – | > 22.7 µM | 2.42 fold | 1.53 fold
